# Data: patent publication US20250361485A1, “MODIFIED CD4+ T CELLS EXPRESSING IL-37 AND METHODS OF USE THEREOF” (The Regents of the University of Colorado, A Body Corporate, priority 2022, published 2025)
# Tests used:
# PAK1/2/3 = PAK1/2/3 inhibition in unstimulated human Treg cells; format: cell-based; details: 1 μM
# Protocol: Purified lymphocytes from either humans or mice were washed with FACS buffer (5% BSA (Sigma-Aldrich) and 1×PBS), and then prepared for surface or intracellular staining, as described (Osborne and Wetzel, 2012). For surface staining, 1 μg or the manufacturer-recommended amounts of fluorescently conjugated antibody specific to the surface marker to be visualized was added to 1×10^6 cells resuspended in 100 μl of FACS buffer for 30 min at 4° C., then washed 2× with FACS buffer prior to being either analyzed or further processed. For intracellular cytokine staining (ICS), the FOXP3 Cytoperm/Cytofix staining kit (BD Pharmingen, San Diego, CA) was used after cells were stimulated for 24 h on 1 μg/ml anti-CD3-coated plates with soluble 1 μg/ml anti-CD28 antibody or anti-CD3/CD28 conjugated Dynabeads™ (Gibco, Thermo Fisher). For measuring proliferation, cells were stained with 5-μM CFSE (Molecular Probes, Eugene, OR) prior to cell culture and analyzed using flow cytometry. Flow-based measurement of caspase-1 activation was done using the FAM-FLICA® Caspase-1 Assay kit #98 following the manufacturer's instructions (ImmunoChemistry Tech, Bloomington, MN). For flow cytometry experiments using the caspase-1 inhibitor Ac-YVAD-CMK, cells were cultured with 50 μM Ac-YVAD-CMK for 2 h prior to stimulation, 24 h (mouse), and 48 h (human), with anti-CD3/CD28 conjugated Dynabeads™ and then prepared for flow cytometry analyses. For experiments using the PAK1/2/3 inhibitor FRAX597, cells were cultured with 1 μM FRAX597 for either 24 h (flow and qRT-PCR) or 48 h (immunoblotting) and then prepared for analysis. For flow cytometry or qRT-PCR experiments using IL-6 treatment, human and mouse cells were cultured with 20 ng/ml IL-6 (Peprotech) and anti-CD3/CD28 conjugated Dynabeads™ and then prepared for analyses. […] All acquisitions were performed on a Galios® or Galios® 561 cytometer equipped with Kaluza software (Beckman-Coulter, Indianapolis, IN), and all data were analyzed with FlowJo_V10 software (Tree Star, Ashland, OR).
# caspase-1 = assay: FAM-FLICA caspase-1 activation assay in human Treg cells; format: cell-based
# Protocol: Purified primary human CD4+ T cells were used for siRNA knockdown of RUNX1, RPTOR, IL37, CREB1, CHK1, NLRP2, NLRP3, NLRP4, ASC, and NLRC4, and CD4+CD25+CD127^dim T cells for siRNA knockdown of FOXP3 and IL37. Cells were purified from healthy donor PBMCs as described above and then placed in culture in complete RPMI 1640 for at least 2 h prior to siRNA transfection via nucleofection using the Amaxa P3 Primary Cell 4D-Nucleofector X Kit L (Lonza) following the manufacturer's instructions. […] Knockdowns were confirmed 24 hours after nucleofection by qRT-PCR or 48 hours later by western blot, and the relative density of the protein bands was determined using FIJI. […]
# Purified lymphocytes from either humans or mice were washed with FACS buffer (5% BSA (Sigma-Aldrich) and 1×PBS), and then prepared for surface or intracellular staining, as described (Osborne and Wetzel, 2012). For surface staining, 1 μg or the manufacturer-recommended amounts of fluorescently conjugated antibody specific to the surface marker to be visualized was added to 1×10^6 cells resuspended in 100 μl of FACS buffer for 30 min at 4° C., then washed 2× with FACS buffer prior to being either analyzed or further processed. […] For measuring proliferation, cells were stained with 5-μM CFSE (Molecular Probes, Eugene, OR) prior to cell culture and analyzed using flow cytometry. […]
# [1] = biological target: p-SMAD3 S208 (SMAD3 phosphorylated at Ser208), human, endogenous in human Treg cells (human) (UniProt P84022); assay: flow cytometry read-out in human Treg cells with or without 50 uM Ac-YVAD-CMK (FIG. 15D), presumably flow-based PLA
# UniProt P84022, sequence (P84022 2-425 limits assumed): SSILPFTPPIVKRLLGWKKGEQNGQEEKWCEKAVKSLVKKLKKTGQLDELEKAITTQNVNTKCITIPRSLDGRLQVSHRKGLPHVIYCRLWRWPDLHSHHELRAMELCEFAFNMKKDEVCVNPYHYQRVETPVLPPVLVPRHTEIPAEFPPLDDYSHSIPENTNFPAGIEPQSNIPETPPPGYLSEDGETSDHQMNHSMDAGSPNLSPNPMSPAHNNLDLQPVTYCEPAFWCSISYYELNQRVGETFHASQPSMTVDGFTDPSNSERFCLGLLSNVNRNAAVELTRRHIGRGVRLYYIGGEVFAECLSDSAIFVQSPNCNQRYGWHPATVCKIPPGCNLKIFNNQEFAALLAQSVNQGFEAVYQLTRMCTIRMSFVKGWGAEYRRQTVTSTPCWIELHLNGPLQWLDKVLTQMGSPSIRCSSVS
compound,measurement,setting,value
CCn1c(=O)c(-c2ccc(-c3cncs3)cc2Cl)cc2cnc(Nc3ccc(N4CCN(C)CC4)cc3)nc21 [FRAX 597],IL-37 localization,PAK1/2/3; 24 hrs,shift in IL-37 localization from the nucleus to the cytoplasm
same,"p-NLRC4 (S533), fold decrease",PAK1/2/3; 24 hrs,1.9 fold
same,FOXP3 gene and protein expression,"PAK1/2/3; 24 hrs (gene), 48 hrs (protein)",decrease
same,reduction in caspase-1 activation,"caspase-1; human Treg cells, 1 μM, 24 hrs",44%
"ASC: siRNA against ASC, SEQ ID NO: 1-2 (chain 1 GCUCUUCAGUUUCACACCAUU; chain 2 UGGUGUGAAACUGAAGAGCUU; chemistry not given here)",caspase-1 activation compared to siRNA scramble control,"caspase-1; primary human Treg cells, siRNA silencing",−20.5%
"Interleukin-37 (IL-37), human, endogenous in human Treg cells (from UniProt Q9NZH6 1-218) (ligand)","decrease of the interaction after caspase-1 inhibitor Ac-YVAD-CMK, against untreated Treg cells",[1],36.5%
